Experimental data published in ChEMBL document CHEMBL3044672, “N9- and N7-(Chloromethyl Phenymethyl)Chloropurine Derivatives from , '-Dichloroxylenes: Synthesis and Anticancer Activity” (2005).

How the values were obtained:
Format in all cases: functional
COLO 205 = assay: Cytotoxicity against Homo sapiens (human) COLO205 cells after 48 hr by sulforhodamine B assay; conditions: COLO 205, 48 h
SK-OV-3 = assay: Cytotoxicity against Homo sapiens (human) SKOV3 cells after 48 hr by sulforhodamine B assay; conditions: SK-OV-3, 48 h
SK-MEL-28 = assay: Cytotoxicity against Homo sapiens (human) SK-MEL-28 cells after 48 hr by sulforhodamine B assay; conditions: SK-MEL-28, 48 h
U-251 = assay: Cytotoxicity against Homo sapiens (human) U251 cells after 48 hr by sulforhodamine B assay; conditions: U-251, 48 h
MCF7 = assay: Cytotoxicity against Homo sapiens (human) MCF7 cells after 48 hr by sulforhodamine B assay; conditions: MCF7, 48 h
ACHN = assay: Cytotoxicity against Homo sapiens (human) ACHN cells after 48 hr by sulforhodamine B assay
786-0 = assay: Cytotoxicity against Homo sapiens (human) 786-0 cells after 48 hr by sulforhodamine B assay; conditions: 786-0, 48 h
RXF 393 = assay: Cytotoxicity against Homo sapiens (human) RXF393 cells after 48 hr by sulforhodamine B assay; conditions: RXF 393, 48 h
SN12C = assay: Cytotoxicity against Homo sapiens (human) SN12C cells after 48 hr by sulforhodamine B assay
HOP-62 = assay: Cytotoxicity against Homo sapiens (human) HOP62 cells after 48 hr by sulforhodamine B assay; conditions: HOP-62, 48 h
HOP-92 = assay: Cytotoxicity against Homo sapiens (human) HOP92 cells after 48 hr by sulforhodamine B assay; conditions: HOP-92, 48 h
BT-549 = assay: Cytotoxicity against Homo sapiens (human) BT549 cells after 48 hr by sulforhodamine B assay; conditions: BT-549, 48 h
NCI-H460 [1] = assay: Cytotoxicity against Homo sapiens (human) NCI-H460 cells assessed as cell growth at 10^-4 M after 48 hr by Alamar blue assay; conditions: NCI-H460, 48 h, read-out: Activity
CCRF-CEM = assay: Cytotoxicity against Homo sapiens (human) CCRF-CEM cells after 48 hr by sulforhodamine B assay
MDA-MB-231 = assay: Cytotoxicity against Homo sapiens (human) MDA-MB-231 cells after 48 hr by sulforhodamine B assay; conditions: MDA-MB-231, 48 h
MOLT-4 = assay: Cytotoxicity against Homo sapiens (human) MOLT4 cells after 48 hr by sulforhodamine B assay; conditions: MOLT-4, 48 h
NCI-H522 = assay: Cytotoxicity against Homo sapiens (human) NCI-H522 cells after 48 hr by sulforhodamine B assay; conditions: NCI-H522, 48 h
PC-3 = assay: Cytotoxicity against Homo sapiens (human) PC3 cells after 48 hr by sulforhodamine B assay; conditions: PC-3, 48 h
NCI-H226 = assay: Cytotoxicity against Homo sapiens (human) NCI-H226 cells after 48 hr by sulforhodamine B assay; conditions: NCI-H226, 48 h
SF-268 [2] = assay: Cytotoxicity against Homo sapiens (human) SF268 cells after 48 hr by sulforhodamine B assay; conditions: SF-268, 48 h
SF-268 [3] = assay: Cytotoxicity against Homo sapiens (human) SF268 cells assessed as cell growth at 10^-4 M after 48 hr by […] assay; conditions: SF-268, 48 h, read-out: Activity
Hs-578T = assay: Cytotoxicity against Homo sapiens (human) Hs 578T cells after 48 hr by sulforhodamine B assay
UO-31 = assay: Cytotoxicity against Homo sapiens (human) UO31 cells after 48 hr by sulforhodamine B assay; conditions: UO-31, 48 h
KM12 = assay: Cytotoxicity against Homo sapiens (human) KM12 cells after 48 hr by sulforhodamine B assay; conditions: KM12, 48 h
MDA-MB-435 = assay: Cytotoxicity against Homo sapiens (human) MDA-MB-435 cells after 48 hr by sulforhodamine B assay; conditions: MDA-MB-435, 48 h
[4] = Cytotoxicity against Homo sapiens (human) NCI-ADR-RES cells after 48 hr by sulforhodamine B assay
NCI-H322M = assay: Cytotoxicity against Homo sapiens (human) NCI-H322M cells after 48 hr by sulforhodamine B assay
HCT-15 = assay: Cytotoxicity against Homo sapiens (human) HCT15 cells after 48 hr by sulforhodamine B assay; conditions: HCT-15, 48 h
UACC-62 = assay: Cytotoxicity against Homo sapiens (human) UACC62 cells after 48 hr by sulforhodamine B assay; conditions: UACC-62, 48 h
NCI-H23 = assay: Cytotoxicity against Homo sapiens (human) NCI-H23 cells after 48 hr by sulforhodamine B assay; conditions: NCI-H23, 48 h
NCI-H460 [5] = assay: Cytotoxicity against Homo sapiens (human) NCI-H460 cells after 48 hr by sulforhodamine B assay; conditions: NCI-H460, 48 h
[6] = read-out: LC50 (the source's name)

## ClCc1ccc(Cn2cnc3c(Cl)ncnc32)cc1
COLO 205
  GI50: 2.23 µM
  TGI: > 100 µM
COLO 205; [6]
  CC50: > 100 µM
SK-OV-3
  GI50: 3.38 µM
  LC50: 91.2 µM
  TGI: 13.8 µM
SK-MEL-28
  GI50: 7.94 µM
  LC50 (concentration killing 50% of cells): > 100 µM
  TGI: 30.9 µM
U-251
  GI50: 1.25 µM
  LC50 (concentration killing 50% of cells): 7.41 µM
  TGI: 3.01 µM
MCF7
  GI50: 0.41 µM
  LC50 (concentration killing 50% of cells): > 100 µM
  TGI: 77.6 µM
ACHN
  GI50: 0.31 µM
  TGI: 1.28 µM
ACHN; [6]
  CC50: 3.8 µM
786-0
  GI50: 1.02 µM
  LC50: 21.4 µM
  TGI: 3.98 µM
RXF 393
  GI50: 2.3 µM
  TGI: 5.49 µM
RXF 393; [6]
  CC50: > 100 µM
SN12C
  GI50: 1.02 µM
  LC50 (50% lethal concentration): 5.37 µM
  TGI: 2.34 µM
HOP-62
  GI50: 1.94 µM
  TGI: 6.76 µM
HOP-62; [6]
  CC50: 32.4 µM
HOP-92
  GI50: 6.02 µM
  TGI: 66.1 µM
HOP-92; [6]
  CC50: > 100 µM
BT-549
  GI50: 5.62 µM
  LC50 (50% lethal concentration): 57.5 µM
  TGI: 21.4 µM
NCI-H460 [1]
  growth at 100 µM: 0%
CCRF-CEM
  GI50: 0.51 µM
  TGI: > 100 µM
CCRF-CEM; [6]
  CC50: > 100 µM
MDA-MB-231
  GI50: 1.77 µM
  LC50: 8.7 µM
  TGI: 3.89 µM
MOLT-4
  GI50: 4.78 µM
  TGI: > 100 µM
MOLT-4; [6]
  CC50: > 100 µM
NCI-H522
  GI50: 3.54 µM
  TGI: > 100 µM
NCI-H522; [6]
  CC50: > 100 µM
PC-3
  GI50: 4.78 µM
  LC50 (concentration causing 50% cell kill): > 100 µM
  TGI: 72.4 µM
NCI-H226
  GI50: 1.58 µM
  TGI: 7.41 µM
NCI-H226; [6]
  CC50: 49 µM
SF-268 [2]
  GI50: 0.64 µM
  TGI: 2.88 µM
SF-268 [2]; [6]
  CC50: 9.33 µM
SF-268 [3]
  growth at 100 µM: 26%
Hs-578T
  GI50: 10.2 µM
  LC50: > 100 µM
  TGI: 38.9 µM
UO-31
  GI50: 2.08 µM
  LC50 (concentration causing 50% net cell kill): > 100 µM
  TGI: 4.57 µM
KM12
  GI50: 2.14 µM
  TGI: 10.2 µM
KM12; [6]
  CC50: 95.5 µM
MDA-MB-435
  GI50: 1.62 µM
  LC50: 15.8 µM
  TGI: 4.36 µM
[4]
  GI50: 1.51 µM
  LC50 (concentration killing 50% of cells): 38.9 µM
  TGI: 5.49 µM
NCI-H322M
  GI50: 1.82 µM
  TGI: 4.16 µM
NCI-H322M; [6]
  CC50: 9.33 µM
HCT-15
  GI50: 1.95 µM
  TGI: 12.6 µM
HCT-15; [6]
  CC50: 63.1 µM
UACC-62
  GI50: 1.23 µM
  LC50 (concentration causing 50% net cell kill): 9.45 µM
  TGI: 33.9 µM
NCI-H23
  GI50: 0.66 µM
  TGI: 2.45 µM
NCI-H23; [6]
  CC50: 7.76 µM
NCI-H460 [5]
  GI50: 0.05 µM
  TGI: 1.82 µM
NCI-H460 [5]; [6]
  CC50: 26.9 µM
